Data on 6 compounds can be found in ChEMBL document CHEMBL4680331, “Ancistrobrevidines A-C and related naphthylisoquinoline alkaloids with cytotoxic activities against HeLa and pancreatic cancer cells, from the liana Ancistrocladus abbreviatus” (Bioorg Med Chem, 2021).

Structures are written as SMILES.

Data set [1] concerns PANC-1. Briefly: Anti-austerity activity against nutrient-deprived human PANC-1 cells assessed as cell death incubated for 24 hrs by WST-8 assay. In kind it is functional. On the technique in general: Tetrazolium dyes change colour on reduction, which living cells bring about.
The subject of data set [2] is HeLa. Kind of data set: Cytotoxicity against human HeLa cells assessed as decrease in cell viability measured after 72 hrs by WST-8 assay. The format is functional, cell-based.
Data set [3] concerns PANC-1. Briefly: Inhibition of cell migration in human PANC1 cells assessed as open wound area at 40 uM cultured in nutrient rich DMEM medium measured after 48 hrs by quantitative real-time imaging based wound healing assay relative to control. The format is functional. More on the design: scale not given: the % may be the effect or the level left.
The subject of data set [4] is PANC-1. Briefly: Cytotoxicity against nutrient-rich DMEM cultured human PANC-1 cells incubated for 24 hrs by WST-8 assay. In kind it is cell-based. The following applies: panc-1, 24 h.
Data set [5] relates to PANC-1. Briefly: Induction of morphological changes in human PANC-1 cells cultured in nutrient-deprived medium assessed as cell death at 20 uM measured after 24 hrs by ethidium bromide/acridine orange staining based phase contrast microscopy relative to control. The format is functional.
Data set [6] concerns PANC-1. Kind of data set: Inhibition of colony formation in human PANC-1 cells at 40 uM cultured in nutrient rich DMEM medium measured after 24 hrs by crystal violet staining based assay relative to control. The format is functional.
For data set [7], the system named is PANC-1. Kind of data set: Inhibition of cell migration in human PANC1 cells assessed as open wound area at 20 uM cultured in nutrient rich DMEM medium measured after 24 hrs by quantitative real-time imaging based wound healing assay (reference value: 50%). The format is functional. More on the design: scale not given: the % may be the effect or the level left.

Data set [8] concerns PANC-1. Kind of data set: Inhibition of cell migration in human PANC1 cells assessed as open wound area at 20 uM cultured in nutrient rich DMEM medium measured after 48 hrs by quantitative real-time imaging based wound healing assay relative to control. In kind it is functional. Further details: scale not given: the % may be the effect or the level left.
Data set [9] has as its system PANC-1. Briefly: Inhibition of colony formation in human PANC-1 cells at 20 uM cultured in nutrient rich DMEM medium measured after 24 hrs by crystal violet staining based assay relative to control. The format is functional.
In data set [10] the test system is PANC-1. Briefly: Inhibition of colony formation in human PANC-1 cells at 10 uM cultured in nutrient rich DMEM medium measured after 24 hrs by crystal violet staining based assay relative to control. In kind it is functional.
The test system of data set [11] is PANC-1. Kind of data set: Inhibition of cell migration in human PANC1 cells assessed as open wound area at 40 uM cultured in nutrient rich DMEM medium measured after 24 hrs by quantitative real-time imaging based wound healing assay (reference value: 50%). In kind it is functional. Further details: scale not given: the % may be the effect or the level left.

In the case of `COc1cc(C[C@H]2C(=O)OC[C@@H]2Cc2ccc(OC)c(OC)c2)ccc1O` [ARCTIGENIN], in data set [1], the PC50 was found to be 0.83 µM.
The term IC50 denotes the concentration that gives 50% inhibition. Regarding `COc1cc(O)c(-c2c(C)cc(OC)c3c(OC)cccc23)c2c1C(C)=N[C@H](C)C2`, the IC50 in data set [2] was more than 100 µM. Moreover, in data set [1], the PC50 was found to be 46.8 µM.
For `COc1cc(OC)c(-c2c(C)cc(OC)c3c(OC)cccc23)c2c1C(C)=N[C@H](C)C2` the same measures were 46.9 µM and 64.5 µM.
In general, inhibition refers to how much of the control response was suppressed. `COc1cc(OC)c(-c2ccc(O)c3c(OC)cc(C)cc23)c2c1C(C)=N[C@@H](C)C2`: the Activity in data set [3] was 70%; in data set [4] it was “Non-Toxic”; in data set [5], 100%; in [2], “Dose-dependent effect”; in data set [7] it was 62%; in data set [8], 25%. For the same compound, the Activity in data set [11] amounted to 77%. Also, the half-inhibitory concentration (IC50) in [2] worked out at 7.2 µM. For the same compound, in data set [6], the inhibition at 40 µM amounted to 100%. At 20 µM the inhibition in [9] was 95%. 10 µM produced 63% inhibition in data set [10]. The PC50 in data set [1] worked out at 13.3 µM.
On to `COc1cc(OC)c(-c2ccc(OC)c3c(OC)cc(C)cc23)c2c1C(C)=N[C@@H](C)C2` [ANCISTROEALAINE A], for which the PC50 in [1] worked out at 18.8 µM.
For `COc1cccc2c1C(=O)C(=O)C(C)=C2c1c(OC)cc(O)c2c1C[C@H](C)N[C@H]2C`, the IC50 in data set [2] is 84.3 µM. Besides, the PC50 in data set [1] was 28.5 µM.
